This is an account of results in patent US20210299094A1, “METHODS OF UPREGULATING TIPARP AS ANTICANCER STRATEGIES” (CORNELL UNIVERSITY, priority 2018, published 2021).

In general, IC50 refers to the point on the concentration scale where inhibition reaches its midpoint. The low end stands for greater potency, the high end for weaker potency.

Read-outs that look alike come from different tables or passages of the source. Where a SMILES comes first, the peptide text is derived from it. The star is where a group is joined. Cbz = O=C(OCc1ccccc1)*

Data set [1] relates to TiPARP mRNA. The protocol: (§1) Quantitative Real Time PCR (qRT-PCR)
(§2) Total RNA. was isolated using RNeasy Mini kit (Qiagen) according to the manufacturer's instructions. 0.2 μg sample of total RNA was employed for cDNA synthesis using the Superscript III First-Strand Synthesis kit (Invitrogen) following the manufacturer's instructions. For quantitative real-time PCR analysis, iTaq Universal SYBR Green Supermix (Bio-Rad) was used following the manufacturer's instructions. The reaction was performed with QuantStudio™ 7 Flex Real-Time PCR System (APPLIED BIOSYSTEMS™). In each run, melt curve analysis was performed to ensure the amplification of a single product. The relative expression of each gene, normalized to actin, was calculated using the 2^−ΔΔCt method. The following primers were used for qRT-PCR: VEGF: 5′-[…]-3′ (SEQ ID NO: 24) and 5′-[…]-3′ (SEQ ID NO: 25); GLUT1: 5′-[…] CTAAA-3′ (SEQ ID NO: 26) and 5′˜[…]-3′ (SEQ ID NO: 27); PDK1: 5′-[…]-3′ (SEQ ID NO: 28) and 5′-[…]-3′ (SEQ ID NO: 29); WSBJ: 5′-[…]-3′ (SEQ ID NO: 30) and 5′-[…]-3′ (SEQ ID NO: 31); LDHA: 5′-[…]-3′ (SEQ ID NO: 32) and 5′-[…] CAG-3′ (SEQ ID NO: 33); CXCR4: 5′-[…]-3′ (SEQ ID NO: 34) and 5′-[…]-3′ (SEQ ID NO: 35); TIPARP: 5′-[…]-3′ (SEQ ID NO: 36) and 5′-[…]-3′ (SEQ ID NO: 37), ACTIN: 5′-[…]-3′ (SEQ ID NO: 38) and 5′-[…]-3′ (SEQ ID NO: 39).

The subject of data set [2] is TiPARP mRNA. The protocol: as §1, §2
The source holds these as a separate data set.

Data set [3] concerns SKBR3. Kind of data set: Growth inhibition IC50 in SKBR3 cells, control vs TiPARP knockdown. It counts as cell-based. To be noted: Homo sapiens. The protocol:
(§3) For transient overexpression of proteins of interest, cells were transfected with expression vectors using FuGene 6 (Promega, E2691) according to the manufacturer's protocol. To stably knock down TiPARP, lentivirus was produced by transfecting HEK 293T cells with pCMV-ΔR8.2 (packaging vector), pM2D.G (envelope vector) and shRNAs (Sigma). Virus-containing medium was harvested 24 hr after transfection. Target ceils were seeded in a 6-well plate 20 hr prior to transduction (3×10^5 cells per well). At the confluence of 50%, target cells were transduced with virus particles in medium supplemented with 5 μg/ml polybrene (Sigma), and incubated for 6 hr. Remove supernatant and add fresh medium to the cells. 72 hr after infection, 2 μg/mL puromycin was added to the cell culture media for 10 days to select stably transduced target cells.
(§4) IC50 values for Biochanin A was measured in HCT116, SKBR3 and MCF-7 cell lines where TiPARP was knocked down.

The test system of data set [4] is TiPARP mRNA. The protocol:
as §1, §2
The source holds these as a separate data set.

Data set [5] concerns HCT116. Kind of data set: Growth inhibition IC50 in HCT116 cells, control vs TiPARP knockdown. To be noted: Homo sapiens. It counts as cell-based. The protocol: as §3, §4
The test system of data set [6] is MCF-7 (ER pos.). The experiment in a line: IC50 in MCF-7 (ER pos.) cell line. It counts as cell-based. To be noted: Homo sapiens, MCF7.
The test system of data set [7] is MCF-7. The experiment in a line: Growth inhibition IC50 in MCF-7 cells, control vs TiPARP knockdown. It counts as cell-based. The settings on record: Homo sapiens. The protocol:
as §3, §4

Data set [8] relates to HCT116. Kind of data set: IC50 in HCT116 cell line. It is filed as cell-based. The settings on record: Homo sapiens, HCT-116.
The test system of data set [9] is SKBR3 (ER neg.). Kind of data set: IC50 in SKBR3 (ER neg.) cell line. It is filed as cell-based. The settings on record: Homo sapiens, SK-BR-3.
The test system of data set [10] is TiPARP mRNA. Kind of data set: RT-PCR analysis of TiPARP mRNA level in HEK 293T treated with hypoxia-mimetic agents. It is filed as cell-based, human. The settings on record: FIG. 1C. An excerpt: FIGS. 1A-1F. TiPARP is a direct target gene of HIFs. (A) A schematic representation of TiPARP promoter. Core sequence of hypoxia-response element (HRE) is highlighted in red. (B) Expression of TiPARP mRNA in HCT116 and MCF-7 cells analyzed by qRT-PCR under normoxia/hypoxia (mean and s.d. of three independent experiments). (C) RT-PCR analysis of TiPARP mRNA level in HEK 293T treated with hypoxia-mimetic agent DMOG and DFO, or transfected with HA tagged HIF-1α. Expression of endogenous or HA-HIF-1α was detected by HIF-1α antibody on western blot (bottom), (D) Schematic representation of the luciferase reporter construct with wild type (WT) or mutated (Mut) HRE. (E) HIF-1α transactivation measured by luciferase reporter with WT or mutant HRE from TiPARP promoter. Transfection efficiencies were normalized to co-transfected Renilla-luciferase. Mean and standard deviation (s.d.) correspond to four technical replicates, representative of three independent experiments. NS, not significant. (F) ChIP assay assessing the chromatin binding of HIF-1α to HRE in TiPARP promoter, RNA polymerase II (Pol II) was used as a positive control.
TiPARP was previously characterized as a TCDD-responsive gene regulated by AHR (Ma, Q. Arch Biochem Biophys 404, 309-316 (2002); Ma, Q. et al, Biochem Biophys Res Commun 289, 499-506, (2001)). […]

Data set [11] has as its system MDA-MB-468 (ER negative). The experiment in a line: IC50 in MDA-MB-468 (ER negative) cell line. It counts as cell-based. To be noted: Homo sapiens.
Data set [12] concerns BT549 (ER negative). Kind of data set: IC50 in BT549 (ER negative) cell line. It is filed as cell-based. To be noted: Homo sapiens, BT-549.
In data set [13] the test system is HME1 (normal mammary epithelial cell). Kind of data set: IC50 in HME1 (normal mammary epithelial cell). It counts as cell-based.
Data set [14] deals with MDA-MB-231 (ER negative). Kind of data set: IC50 in MDA-MB-231 (ER negative) cell line. It is filed as cell-based. The settings on record: Homo sapiens.
The subject of data set [15] is TiPARP mRNA. The settings on record: human. The protocol:
as §1, §2

Data set [16] relates to cMyc protein levels. Kind of data set: cMyc protein levels in TiPARP-overexpressing HCT 116C cells with protease inhibitor treatment. It is filed as cell-based, human. The settings on record: 20 μM, over 2 hours, FIG. 10B. The source says: FIGS. 10A-10E. (A) Overexpression of active TiPARP decreases cMyc protein levels. […] (B) TiPARP regulates cMyc protein levels by regulating the protein degradation pathway. […] (D) Knockdown of TiPARP in HCT116 cells caused ERα protein levels to increase. (E) Knockdown of TiPARP in MCF-7 cells caused ERα protein levels to increase.
The inventors also observed that overexpression of active TiPARP decreases cMyc protein levels.
The inventors also discovered the TiPARP regulates cMyc protein levels by regulating the protein degradation pathway.

With `COc1ccc(-c2coc3cc(O)cc(O)c3c2=O)cc1` [Biochanin A], the “TiPARP mRNA fold induction” value in data set [1] (human) came out at 2.5 fold; in data set [2] (human), 8.8 fold; in data set [4] (human), 5.6 fold. Further, the IC50 stood at 52.3 µM in [3] (SK-BR-3, SKBR3, Ctrl); 83.3 µM in data set [3] (SK-BR-3, SKBR3, TiPARP KD (40%)); 30 µM in [5] (HCT-116, HCT116, Ctrl); 54.8 µM in data set [5] (HCT-116, HCT116, TiPARP KD (40%)); 19.7 µM in data set [6]; 93.4 µM in [7] (MCF7, MCF-7, Ctrl). Further, the IC50 amounted to 174 µM in data set [7] (MCF7, MCF-7, TiPARP KD (40%)); 20 µM in [8]; 20 µM in [9].
In the case of `CC(=O)N(O)CCCCCNC(=O)CCC(=O)N(O)CCCCCNC(=O)CCC(=O)N(O)CCCCCN` [DFO, desferrioxamine], the “TiPARP mRNA level” value in data set [10] is reported as “increased”.
Still for that read-out and setting: for `COC(=O)CNC(=O)C(=O)OC` [DMOG, dimethyloxalylglycine] the value was “increased”.
As for `c1ccc2c(Cc3c[nH]c4ccccc34)c[nH]c2c1` [Diindolylmethane, diindolylmethane], the “TiPARP mRNA fold induction” value in [1] (human) is recorded as 8.0 fold; in [2] (human) it was 4.2 fold; in [4] (human), 3.3 fold; in [15], 3.2 fold. Besides, the concentration for half-maximal inhibition (IC50) in [11] was found to be 13.5 µM; in data set [12], 32.1 µM; in data set [13] it was 51.2 µM; in data set [14] it was 47.9 µM; in data set [6], 31 µM; in data set [8] it was 39 µM. The molecule further returned an IC50 in [9] of 45 µM.
As for `COc1ccc(-c2coc3cc(O)ccc3c2=O)cc1` [Formonometin, formonometin], the “TiPARP mRNA fold induction” value in data set [1] worked out at 2.3 fold; in [2], 2.5 fold; in data set [4], 1.7 fold.
For the molecule `CC(C)C[C@@H](C=O)NC(=O)[C@H](CC(C)C)NC(=O)[C@H](CC(C)C)NC(=O)OCc1ccccc1` [MG132] (Cbz-Leu-Leu-Leu-aldehyde), in [16], the “effect on TiPARP-overexpression-induced decrease of cMyc protein levels” value is “effectively blocked the effect of TiPARP overexpression”.
Turning to `COc1ccc2[nH]c([S+]([O-])Cc3ncc(C)c(OC)c3C)nc2c1` (stereo not drawn) [Omerprazole, omeprazole], the “TiPARP mRNA fold induction” value was determined as 1.7 fold in data set [1] (human), 2.3 fold in [2] (human) and 0.81 fold in data set [4] (human).
Regarding `Oc1ccc(C=Cc2cc(O)cc(O)c2)cc1` [Resveratrol, resveratrol], the 50% inhibitory concentration (IC50) in [11] was determined as 97.3 µM; in data set [12], 23.1 µM; in [13] it was 189 µM; in data set [14], 90.4 µM; in data set [6] it was 27.7 µM; in [8] it was 46 µM. This molecule also displayed an IC50 in data set [9] of 35.3 µM.
For `OCc1c[nH]c2ccccc12` [indole-3-carbinol], the “TiPARP mRNA fold induction” value in [1] was 1.4 fold; in [2], 1.4 fold; in data set [4], 1.5 fold.
